Experimental data from ChEMBL document CHEMBL1123907 (J Med Chem, 1987).

Experiments:
[1] = Binding affinity against imipramine receptor was determined in homogenized rat cortex tissue using [3H]-imipramine as radioligand
[2] = molecular target: Muscarinic acetylcholine receptor; assay: Binding affinity against Muscarinic acetylcholine receptor was determined in homogenized rat cortex tissue using [3H]N-methylscopolamine as radioligand

Ki [1] [nM] | Ki [2] [nM] | Structure (SMILES)
> 100000 | 45 | CN(C)CCC(=O)N1c2ccccc2C(=O)Nc2cccnc21
> 100000 | 6 | CN(C)CCC(=O)N1c2ccccc2NC(=O)c2ccccc21
15000 | 200 | CN(C)CCCN1c2ccccc2C(=O)Nc2cccnc21

The next lines start with the compound.

Structure (SMILES) | Ki [1] [nM] | Ki [2] [nM]
CN1CCN(CC(=O)N2c3ccccc3NC(=O)c3ccccc32)CC1 | > 100000 | 23
CN1CCN(CC(=O)N2c3ccccc3CCc3ccccc32)CC1 | > 100000 | 200
CN(C)CCCN1c2ccccc2NC(=O)c2ccccc21 | 4000 | 50
CN(C)CCC(=O)N1c2ccccc2CCc2ccccc21 | 400 | 240
CN(C)CCCN1c2ccccc2CCc2ccccc21 [IMIPRAMINE] | 12 | 65
CN1CCN(CC(=O)N2c3ccccc3C(=O)Nc3cccnc32)CC1 [PIRENZEPINE] | > 100000 | 
